What was measured:
Type in all cases: cell-based
[1] = tested on: Parental (Ba/F3); assay: Ba/F3 cell proliferation inhibition; conditions: BaF3; 72 hours, Cell Counting Kit-8
Procedure, shortened: (§1)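 GI50 derived from CCK-8 absorbance at 450 nm (2 h development), expressed relative to DMSO vehicle. Cells (parental or T315I-Bcr-Abl Ba/F3, 1×10^4/well) received nine threefold-diluted concentrations, final 0 to 10 μM, for 72 h at 37 °C.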

[2] = tested on: T315I-Bcr-Abl (Ba/F3); assay: Ba/F3 cell proliferation inhibition; conditions: BaF3; 72 hours, Cell Counting Kit-8
Procedure, shortened: as §1

[3] = tested on: KOPM28 cells; assay: human CML cell proliferation inhibition; conditions: 72 hours, Cell Counting Kit-8
Procedure, shortened: (§2)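 TCCS and KOPM28 (Bcr-Abl) and their T315I-mutant counterparts, 1×10^4 cells/well, exposed 72 h at 37 °C to 9 fivefold dilutions of compound, final up to 10 μM. Viability by CCK-8 absorbance at 450 nm after 2 h; GI50 from percentage of vehicle.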

[4] = tested on: T315I-KOPM28 cells; assay: human CML cell proliferation inhibition; conditions: 72 hours, Cell Counting Kit-8
Procedure, shortened: as §2

[5] = tested on: T315I-TCCS cells; assay: human CML cell proliferation inhibition; conditions: 72 hours, Cell Counting Kit-8
Procedure, shortened: as §2

[6] = tested on: TCCS cells; assay: human CML cell proliferation inhibition; conditions: 72 hours, Cell Counting Kit-8
Procedure, shortened: as §2

SMILES	GI50 [1]	GI50 [2]	GI50 [3]	GI50 [4]	GI50 [5]	GI50 [6]
Cc1cc(F)c(C(=O)Nc2cc(-c3cccnc3)cc(C(C)(C)C#N)c2)cc1C#Cc1cnc2c(Nc3cn[nH]c3)cccn12 [Example 79, 5-((8-((1H-pyrazol-4-yl)amino)imidazo[1,2-a]pyridin-3-yl)ethynyl)-N-(3-(2-cyanopropan-2-yl)-5-(pyridin-3-yl)phenyl)-2-fluoro-4-methylbenzamide]	> 5000 nM	50 to 500 nM	< 10 nM	> 100 nM	100 nM	< 10 nM
Cc1cc(F)c(C(=O)Nc2cc(N3CCN(C)CC3)cc(C(C)(C)C#N)c2)cc1C#Cc1cnc2c(Nc3cn[nH]c3)cccn12 [Example 80, 5-((8-((1H-pyrazol-4-yl)amino)imidazo[1,2-a]pyridin-3-yl)ethynyl)-N-(3-(2-cyanopropan-2-yl)-5-(4-methylpiperazin-1-yl)phenyl)-2-fluoro-4-methylbenzamide]	> 5000 nM	50 to 500 nM	< 10 nM	> 100 nM	100 nM	< 10 nM
Cc1cc(F)c(C(=O)Nc2cc(N(C)CCN(C)C)cc(C(C)(C)C#N)c2)cc1C#Cc1cnc2c(Nc3cn[nH]c3)cccn12 [Example 81, 5-((8-((1H-pyrazol-4-yl)amino)imidazo[1,2-a]pyridin-3-yl)ethynyl)-N-(3-(2-cyanopropan-2-yl)-5-((2-(dimethylamino)ethyl)(methyl)amino)phenyl)-2-fluoro-4-methylbenzamide]	500 to 5000 nM	50 to 500 nM	< 10 nM	> 100 nM	100 nM	< 10 nM
Cc1cc(F)c(C(=O)Nc2cc(N3CCN(C)C(=O)C3)cc(C(C)(C)C#N)c2)cc1C#Cc1cnc2c(Nc3cn[nH]c3)cccn12 [Example 82, 5-((8-((1H-pyrazol-4-yl)amino)imidazo[1,2-a]pyridin-3-yl)ethynyl)-N-(3-(2-cyanopropan-2-yl)-5-(4-methyl-3-oxopiperazin-1-yl)phenyl)-2-fluoro-4-methylbenzamide]	500 to 5000 nM	50 to 500 nM	< 10 nM	> 100 nM	100 nM	< 10 nM
Cc1cc(F)c(C(=O)Nc2cc(Oc3ccncc3)cc(C(C)(C)C#N)c2)cc1C#Cc1cnc2c(Nc3cn[nH]c3)cccn12 [Example 83, 5-((8-((1H-pyrazol-4-yl)amino)imidazo[1,2-a]pyridin-3-yl)ethynyl)-N-(3-(2-cyanopropan-2-yl)-5-(pyridin-4-yloxy)phenyl)-2-fluoro-4-methylbenzamide]	500 to 5000 nM	< 50 nM	< 10 nM	100 nM	100 nM	< 10 nM
Cc1cc(F)c(C(=O)Nc2cc(CN3CCN(C)CC3)cc(C(C)(C)C#N)c2)cc1C#Cc1cnc2c(Nc3cn[nH]c3)cccn12 [Example 84, 5-((8-((1H-pyrazol-4-yl)amino)imidazo[1,2-a]pyridin-3-yl)ethynyl)-N-(3-(2-cyanopropan-2-yl)-5-((4-methylpiperazin-1-yl)methyl)phenyl)-2-fluoro-4-methylbenzamide]	500 to 5000 nM	50 to 500 nM	< 10 nM	> 100 nM	100 nM	< 10 nM
Cc1cc(F)c(C(=O)Nc2cc(CN3CCC(N(C)C)C3)cc(C(C)(C)C#N)c2)cc1C#Cc1cnc2c(Nc3cn[nH]c3)cccn12 (stereo not drawn) [Example 85, 5-((8-((1H-pyrazol-4-yl)amino)imidazo[1,2-a]pyridin-3-yl)ethynyl)-N-(3-(2-cyanopropan-2-yl)-5-((3-(dimethylamino)pyrrolidin-1-yl)methyl)phenyl)-2-fluoro-4-methylbenzamide]	500 to 5000 nM	50 to 500 nM	< 10 nM	> 100 nM	100 nM	< 10 nM
Cc1cc(F)c(C(=O)Nc2cc(CN3CCN(CCO)CC3)cc(C(C)(C)C#N)c2)cc1C#Cc1cnc2c(Nc3cn[nH]c3)cccn12 [Example 86, 5-((8-((1H-pyrazol-4-yl)amino)imidazo[1,2-a]pyridin-3-yl)ethynyl)-N-(3-(2-cyanopropan-2-yl)-5-((4-(2-hydroxyethyl)piperazin-1-yl)methyl)phenyl)-2-fluoro-4-methylbenzamide]	500 to 5000 nM	< 50 nM	< 10 nM	100 nM	100 nM	< 10 nM
Cc1cc(F)c(C(=O)Nc2cc(CN3CCN(S(C)(=O)=O)CC3)cc(C(C)(C)C#N)c2)cc1C#Cc1cnc2c(Nc3cn[nH]c3)cccn12 [Example 87, 5-((8-((1H-pyrazol-4-yl)amino)imidazo[1,2-a]pyridin-3-yl)ethynyl)-N-(3-(2-cyanopropan-2-yl)-5-((4-(methylsulfonyl)piperazin-1-yl)methyl)phenyl)-2-fluoro-4-methylbenzamide]	> 5000 nM	50 to 500 nM	< 10 nM	> 100 nM	100 nM	< 10 nM
Cc1cc(F)c(C(=O)Nc2cc(CN3CCN(C)C(=O)C3)cc(C(C)(C)C#N)c2)cc1C#Cc1cnc2c(Nc3cn[nH]c3)cccn12 [Example 88, 5-((8-((1H-pyrazol-4-yl)amino)imidazo[1,2-a]pyridin-3-yl)ethynyl)-N-(3-(2-cyanopropan-2-yl)-5-((4-methyl-3-oxopiperazin-1-yl)methyl)phenyl)-2-fluoro-4-methylbenzamide]	500 to 5000 nM	50 to 500 nM	< 10 nM	> 100 nM	> 100 nM	< 10 nM
Cc1cc(F)c(C(=O)Nc2cc(Cn3cncn3)cc(C(C)(C)C#N)c2)cc1C#Cc1cnc2c(Nc3cn[nH]c3)cccn12 [Example 89, N-(3-((1H-1,2,4-triazol-1-yl)methyl)-5-(2-cyanopropan-2-yl)phenyl)-5-((8-((1H-pyrazol-4-yl)amino)imidazo[1,2-a]pyridin-3-yl)ethynyl)-2-fluoro-4-methylbenzamide]	> 5000 nM	< 50 nM	< 10 nM	100 nM	100 nM	< 10 nM
Cc1cc(F)c(C(=O)Nc2ccc(CN3CCN(C)CC3)c(C(C)(C)C#N)c2)cc1C#Cc1cnc2c(Nc3cn[nH]c3)cccn12 [Example 90, 5-((8-((1H-pyrazol-4-yl)amino)imidazo[1,2-a]pyridin-3-yl)ethynyl)-N-(3-(2-cyanopropan-2-yl)-4-((4-methylpiperazin-1-yl)methyl)phenyl)-2-fluoro-4-methylbenzamide]	50 to 500 nM	< 50 nM	< 10 nM	100 nM	100 nM	< 10 nM
Cc1cc(F)c(C(=O)Nc2ccc(CN3CCC(N(C)C)C3)c(C(C)(C)C#N)c2)cc1C#Cc1cnc2c(Nc3cn[nH]c3)cccn12 (stereo not drawn) [Example 91, 5-((8-((1H-pyrazol-4-yl)amino)imidazo[1,2-a]pyridin-3-yl)ethynyl)-N-(3-(2-cyanopropan-2-yl)-4-((3-(dimethylamino)pyrrolidin-1-yl)methyl)phenyl)-2-fluoro-4-methylbenzamide]	500 to 5000 nM	50 to 500 nM	< 10 nM	> 100 nM	> 100 nM	< 10 nM
Cc1cc(F)c(C(=O)Nc2ccc(CN3CCN(CCO)CC3)c(C(C)(C)C#N)c2)cc1C#Cc1cnc2c(Nc3cn[nH]c3)cccn12 [Example 92, 5-((8-((1H-pyrazol-4-yl)amino)imidazo[1,2-a]pyridin-3-yl)ethynyl)-N-(3-(2-cyanopropan-2-yl)-4-((4-(2-hydroxyethyl)piperazin-1-yl)methyl)phenyl)-2-fluoro-4-methylbenzamide]	500 to 5000 nM	< 50 nM	< 10 nM	100 nM	100 nM	< 10 nM
Cc1cc(F)c(C(=O)Nc2ccc(CN3CCN(C)C(=O)C3)c(C(C)(C)C#N)c2)cc1C#Cc1cnc2c(Nc3cn[nH]c3)cccn12 [Example 93, 5-((8-((1H-pyrazol-4-yl)amino)imidazo[1,2-a]pyridin-3-yl)ethynyl)-N-(3-(2-cyanopropan-2-yl)-4-((4-methyl-3-oxopiperazin-1-yl)methyl)phenyl)-2-fluoro-4-methylbenzamide]	500 to 5000 nM	50 to 500 nM	< 10 nM	> 100 nM	> 100 nM	< 10 nM
Cc1cc(F)c(C(=O)Nc2ccc(CN3CCN(S(C)(=O)=O)CC3)c(C(C)(C)C#N)c2)cc1C#Cc1cnc2c(Nc3cn[nH]c3)cccn12 [Example 94, 5-((8-((1H-pyrazol-4-yl)amino)imidazo[1,2-a]pyridin-3-yl)ethynyl)-N-(3-(2-cyanopropan-2-yl)-4-((4-(methylsulfonyl)piperazin-1-yl)methyl)phenyl)-2-fluoro-4-methylbenzamide]	> 5000 nM	500 to 5000 nM	< 10 nM	> 100 nM	> 100 nM	< 10 nM
Cc1cn(-c2cc(NC(=O)c3cc(C#Cc4cnc5c(Nc6cn[nH]c6)cccn45)c(C)cc3F)cc(C(F)(F)F)c2)cn1 [Example 95, 5-((8-((1H-pyrazol-4-yl)amino)imidazo[1,2-a]pyridin-3-yl)ethynyl)-2-fluoro-4-methyl-N-(3-(4-methyl-1H-imidazol-1-yl)-5-(trifluoromethyl)phenyl)benzamide]	> 5000 nM	< 50 nM	< 10 nM	100 nM	100 nM	< 10 nM
